This note sets out measurements from patent US20110118116A1, “Azolin-2-ylamino Compounds for Combating Animal Pests” (priority 2008, published 2011).

What all share (assay type): in vivo
Assay [1] relates to Cowpea Aphid (Aphis craccivora). Put plainly: Cowpea aphid test, colonized potted cowpea plants sprayed. Particulars: spray, population reduction recorded after 24, 72 and 120 hours, read-out: mortality in comparison with untreated controls. As for the experimental part:
III. Cowpea Aphid (Aphis craccivora)
(§1) The active compounds were formulated in 50:50 acetone: water and 100 ppm Kinetic® surfactant.
Potted cowpea plants colonized with 100-150 aphids of various stages were sprayed after the pest population has been recorded. Population reduction was recorded after 24, 72, and 120 hours.

In a further assay the test system is Silverleaf Whitefly. Briefly: Silverleaf whitefly test, cotton cotyledons dipped, adults introduced. Particulars: Bemisia argentifolii, 72 h, cotton plants, dip, mortality assessed 3 days after treatment, read-out: mortality in comparison with untreated controls. As for the experimental part: as §1
Selected cotton plants were grown to the cotyledon state (one plant per pot). The cotyledons were dipped into the test solution to provide complete coverage of the foliage and placed in a well-vented area to dry. Each pot with treated seedling was placed in a plastic cup and 10 to 12 whitefly adults (approximately 3-5 day old) were introduced. The insects were colleted using an aspirator and a 0.6 cm, non-toxic Tygon® tubing (R-3603) connected to a barrier pipette tip. The tip, containing the collected insects, was then gently inserted into the soil containing the treated plant, allowing insects to crawl out of the tip to reach the foliage for feeding. The cups were covered with a re-usable screened lid (150 micron mesh polyester screen PeCap from Tetko Inc). Test plants were maintained in the holding room at about 25 °C and 20-40% relative humidity for 3 days avoiding direct exposure to the fluorescent light (24 hour photoperiod) to prevent trapping of heat inside the cup. Mortality was assessed 3 days after treatment of the plants.

For assay [2], the system named is Green Peach Aphid (Myzus persicae). Briefly: Green peach aphid test, leaves of infested pepper plants dipped. The note with it: 120 h, dip, aphid mortality determined after 5 days, read-out: mortality in comparison with untreated controls. The protocol: II. Green Peach Aphid (Myzus persicae)
as §1
Pepper plants in the 2nd leaf-pair stage (variety ‘California Wonder’) are infested with approximately 40 laboratory-reared aphids by placing infested leaf sections on top of the test plants. The leaf sections are removed after 24 hours. The leaves of the intact plants are dipped into gradient solutions of the test compound. Aphid mortality on the treated plants, relative to mortality on check plants, is determined after 5 days.

For assay [3], the system named is Cotton Aphid (Aphis gossypii). Put plainly: Cotton aphid test, cotyledons of infested cotton plants dipped. The note with it: 120 h, dip, aphid mortality determined after 5 days, read-out: mortality in comparison with untreated controls. The protocol: I. Cotton Aphid (Aphis gossypii)
as §1
Cotton plants in the cotyledon stage (variety ‘Delta Pine’) are infested with approximately 100 laboratory-reared aphids by placing infested leaf sections on top of the test plants. The leaf sections are removed after 24 hours. The cotyledons of the intact plants are dipped into gradient solutions of the test compound. Aphid mortality on the treated plants, relative to mortality on check plants, is determined after 5 days.

Consider `Cc1cccc(C#CCC(NC(=S)NCCO)c2cccc(C)c2C)c1` (stereo not drawn) [Example 2, 1-[1-(2,3-dimethyl-phenyl)-4-m-tolyl-but-3-ynyl]-3-(2-hydroxy-ethyl)-thiourea], for which, in assay [1], the mortality at 300 ppm was above 70%.
For the compound `Cc1cccc(C#CCC(NC2=NCCS2)c2cccc(C)c2C)c1` (stereo not drawn) [Example 13, (4,5-dihydro-thiazol-2-yl)-[1-(2,3-dimethyl-phenyl)-4-m-tolyl-but-3-ynyl]-amine], the mortality at 300 ppm (in the assay on Silverleaf Whitefly; in assay [1]; in assay [2]; in assay [3]) was above 70% in each case.
Consider `C#CCC(NC1=NCCS1)c1cccc(C)c1C` (stereo not drawn) [Example 14, (4,5-dihydro-thiazol-2-yl)-[1-(2,3-dimethyl-phenyl)-but-3-ynyl]-amine], for which, in assay [1], the mortality at 300 ppm was above 70%.
Turning to `Cc1cccc(C(CC#Cc2cccc(Cl)c2)NC2=NCCS2)c1C` (stereo not drawn) [Example 15, [4-(3-chloro-phenyl)-1-(2,3-dimethyl-phenyl)-but-3-ynyl]-(4,5-dihydro-thiazol-2-yl)-amine], the mortality at 300 ppm in assay [1], in assay [2] and in assay [3] was above 70% throughout.
